The subject of this test is lung ILC2s. The test is described as follows: Flow cytometry of proliferation, transcription factor and signalling markers in lung ILC2s. It is filed as cell-based, mouse. From the text: FIGS. 5A-5F: Cholinergic signal attenuates ILC2 proliferation and GATA3 expression. (FIG. 5A) Mean fluorescence intensity of Ki67 and percentage of Ki67+ cells in isolated lung ILC2s, stimulated with IL-33 in the absence and presence of α7nAChR. (FIG. 5B) Mean fluorescence intensity of GATA3 in isolated lung ILC2s, stimulated with IL-33 in the absence and presence of α7nAChR. One representative experiment of two is shown (n=5; Student's t test *, p<0.05; **, p<0.01; ***p<0.001). […] FACS-purified ILC2s from WT mice challenged with rm-IL-33 with or without α7nAChR agonist as described in FIG. 3A were quantified by NanoString nCounter technology. Data range from −1 to +1 for the most reduced and most increased gene expression, respectively. (FIG. 5D) Expression of NF-κB p65 in isolated lung ILC2s from mice challenged with IL-33 with (dotted line) or without (thick line) α7nAChR agonist. The level of isotype-matched stain control is shown as a gray-filled histogram. (FIG. 5E) Expression of phosphorylated IKKα/β (Ser176/180) in isolated lung ILC2s stimulated with IL-33, with (dotted line) or without (thick line) α7nAChR agonist for 24 hours. The level of isotype-matched stain control is shown as a gray-filled histogram. (FIG. 5F) Mean fluorescence intensity of phosphorylated IKKα/β with or without α7nAChR agonist.
FIGS. 9A-9C: Effect of α7nAChR agonist on some marker expressions by ILC2s. A cohort of BALB/cByJ mice were intranasally challenged with rm-IL-33 (0.5 μg) with or without α7nAChR agonist (125 μg) for three consecutive days. Histogram and MFI of CD25 (FIG. 9A), CD127 (FIG. 9B) and ST2 (FIG. 9C) in isolated lung ILC2s. Data are representative of at least two independent experiments and are presented as means±SEM (n=4; Student's t test *, p<0.05).
Biotinylated anti-mouse lineage (CD3e (145-2C11), CD45R (RA3-3B2), Gr-1 (RB6-8C5), CD11c (N418), CD11b (M1/70), Ter119 (TER-119), NK1.1 (PK136), TCR-β (H57-597), TCR-γδ (GL3), and FcεRIα (MAR-1), Streptavidin-FITC, FITC anti-mouse CD3 (145-2C11), BV510 anti-mouse CD4 (RM4-5), APC-Cy7 anti-mouse CD25 (PC61), PE anti-mouse CD25 (PC61), BV421 anti-mouse CD25 (PC61), BV510 anti-mouse CD90.2 (53-2.1), APC anti-mouse CD127 (A7R34), PE-Cy7 anti-mouse CD127 (A7R34), FITC anti-mouse CD45 (30F-11), PE/Cy7 anti-mouse CD45 (30-F11), PE anti-mouse IL-5 (TRFK5), BV421 anti-mouse GATA3 (16E10A23), 7-AAD Viability staining solution, purchased from BioLegend (San Diego, Calif.). PE anti-mouse ST2 (IL-33R, RMST2-2), PerCP-eFluor710 anti-Mouse ST2 (RMST2-2), Streptavidin APC-eFluor780, Alexa Fluor647 labeled anti-IL-4 (clone 11B11), eFluor 450 anti-mouse CD45 (30F-11), eFluor450 anti-CD44 (clone IM7), eFluor-660 anti-mouse Ki-67 (SollA15), PE/Cy7 anti-mouse IL-13 (eBio13A), anti-mouse BCL-2 (10C4), were purchased from eBioscience. Alexa Fluor 488 anti-mouse p65-NF-κB (532301) was purchased from R&D Systems (dilution 1:50). Alexa Fluor 647 conjugated α-bungarotoxin (Invitrogen, San Diego, Calif.). PE anti-mouse Phospho-IKKα/β (Ser 176/180) (16A6) was purchased from Cell Signaling Technology (dilution 1:50). PE anti-rat α7nAChR (319) was purchased from Santa Cruz Biotechnology (dilution 1:50). This antibody has been used to identify this receptor previously in several studies^69. Lineage marker antibodies were used at the dilution of 1:400, unless mentioned otherwise other antibodies were used at the dilution of 1:200.
Intracellular staining was performed using BD Cytofix/Cytoperm kit (BD Bioscience, San Jose, Calif.) according to the manufacturer's instructions. For analysis of GATA3 and Ki-67 expression, freshly isolated cells were fixed and permeabilized using Fixation/Permeabilization buffer kit (eBioscience) according to the manufacturer's instructions and as previously described^70.

For `COc1ccc(/C=C2\CCCN=C2c2cccnc2)c(OC)c1` [GTS-21, 3-[(3E)-3-[(2,4-dimethoxyphenyl)methylidene]-5,6-dihydro-4H-pyridin-2-yl]pyridine], the “expression of anti-apoptotic factor Bcl-2 on ILC2s” value (in vivo data) is recorded as “unaffected”. Also, for the setting “isolated lung ILC2s, IL-33”, the “GATA-3 expression in ILC2s” value is “significantly inhibits” and the “proliferation rate of pulmonary ILC2s (Ki-67 levels)” value is “significantly decreased”. For the same compound, for the setting “lung ILC2s from mice challenged with IL-33”, the “NF-κB p65 expression in ILC2s” value was “reduced”. For the same compound, the “phosphorylated IKKα/β (Ser176/180) expression in ILC2s” value (lung ILC2s stimulated with IL-33, 24 hours) is listed as “reduced”.
